# From patent US20210361664A1, “CORTICOTROPIN RELEASING FACTOR RECEPTOR ANTAGONISTS” (Spruce Biosciences, Inc., priority 2017, published 2021)
# Legend:
# [1] = Study 1: single-escalating oral dose pharmacokinetics, incl. food effect (Phase 1); assay type: in vivo, human; conditions: 50 to 800 mg, fed state
# Description: Study 1 was the first-in-human study that investigated the safety, tolerability, and PK of single-escalating doses of Compound 1, given orally, to healthy adult subjects. […] The data from this study were used for the selection of doses for Study 2.
# In Study 1, Compound 1 was administered to healthy adult subjects as a single PO dose of 2, 10, 50, 150, 400, or 800 mg in the fed state and 150 mg in the fasted state. Absorption occurred moderately late, achieving peak Cmax between 4 to 6 hours following dosing in the fed state.
# When Compound 1 was given in the fed state, median time to reach maximum plasma concentration (Tmax) occurred between 4 and 6 hours.
# As part of this single-dose escalation study, a food effect PK investigation was performed to examine Compound 1 exposures in both the fed and fasted states at the 150-mg dose level. A total of 6 subjects were administered 150 mg Compound 1 in each of these 2 dosing groups. Of these 6 subjects, 4 subjects received Compound 1 at the same dose in both fed and fasted states. […] Table 6 provides a summary of the PK parameters at the 150-mg dose level under both fed and fasted state conditions.
# PK parameters AUC0-∞ and Cmax were analyzed separately for dose proportionality for Compound 1 from 50 to 800 mg when administered in the fed state. […]
# [2] = Study 2 Part A: multiple-dose, dose-escalation pharmacokinetics (Phase 1, 14 days); assay type: in vivo, human; conditions: after 2 weeks of dosing
# Description: The 2-part multiple-dose study, Study 2, determined the safety and tolerability of repeated daily doses of Compound 1 and investigated the effects on biomarkers of relevance for the treatment of alcohol dependence.
# PK were also evaluated in the multiple-dose, dose-escalation study, Study 2. In Part A of the study, subjects were divided into 3 cohorts and received 50, 150, or 200 mg Compound 1 or placebo for 14 consecutive days (at least 6 subjects received Compound 1 and 2 subjects received placebo in each cohort). […] All dosing occurred in the fed state. An assessment of diurnal cortisol levels, plus when under conditions of glucose clamp, were also carried out both prior to and during the dosing period.
# Consistent with the single-dose study (Study 1), concentrations appeared to decline in a bi-exponential manner, characterized by a rapid decrease within the first 24 hours. […] The Tmax appeared to be consistent across doses. Overall half-lives, weight normalized CL/F and V/F were consistent for 150 and 200 mg. However, the values for these latter 2 parameters were almost doubled at the 50-mg dose level. Variability (CV %) for apparent clearance and volume of distribution were large and not reduced with weight-normalization.
# Table 8 presents the results of the dose proportionality assessment for the AUC0-24 and Cmax over the tested dose range.
# CRF1 receptor = molecular target: T1, CRF1 receptor (Homo sapiens, UniProt P34998); test: Phase 2 study in adults with classic CAH: hormone response (ACTH, 17-OHP, androstenedione); assay type: in vivo
# T1 construct: from tissue; host or cells: in vivo, human patients (anterior pituitary corticotrophs)
# T1 sequence (P34998 24-415): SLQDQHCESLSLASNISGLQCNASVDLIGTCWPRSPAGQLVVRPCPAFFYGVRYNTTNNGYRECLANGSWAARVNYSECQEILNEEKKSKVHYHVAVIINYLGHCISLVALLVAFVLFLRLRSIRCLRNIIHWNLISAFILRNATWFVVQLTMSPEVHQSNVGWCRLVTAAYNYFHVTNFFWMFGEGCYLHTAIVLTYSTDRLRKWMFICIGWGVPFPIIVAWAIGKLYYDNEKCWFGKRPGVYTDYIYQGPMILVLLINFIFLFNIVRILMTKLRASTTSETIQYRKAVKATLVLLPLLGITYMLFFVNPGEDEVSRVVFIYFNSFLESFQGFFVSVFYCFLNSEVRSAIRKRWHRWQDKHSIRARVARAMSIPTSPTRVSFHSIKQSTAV
# Excerpt: Cohort A of the Phase 2 Study includes a 6-week, multiple-dose, dose escalation study of Compound 1 for the treatment of adults with classic CAH. After screening, eligible patients will be enrolled into a 6-week treatment period followed by a 4-week washout/safety follow-up period.
# This cohort will be conducted in approximately 9 patients, who will receive Compound 1 daily for up to 6 weeks. Compound 1 will be administered as an oral daily dose. Patients will undergo titration of Compound 1 through three escalating dosage strengths at 2-week intervals. […]
# Patients in Cohort B will receive study drug at 200 mg BID, with a dose in the morning and a dose in the evening, either with a meal or consumption of a standardized snack. For Cohorts C and D, the dose level and the frequency and timing of dosing will be determined based on interim data from the previous cohorts. […]
# • 1. […] To assess the efficacy of Compound 1 in subjects with classic CAH as measured by percent and absolute change in 17-OHP compared to baseline.
# • 3. To explore the dose(s) of Compound 1 that cause pharmacodynamics changes in plasma concentrations of ACTH, androstenedione, and testosterone, as measured by the absolute and percent change from baseline by dose. • 4. […]
smiles,measurement,setting,value
"CCC(CC)c1cc(C)nc2c(-c3sc(N4CCOCC4)nc3Cl)c(C)nn12 [Compound 1, 3-(4-Chloro-2-(morpholin-4-yl)thiazol-5-yl)-7-(1-ethylpropyl)-2,5-dimethylpyrazolo(1,5-a)pyrimidine]","AUC0-∞ increase for every doubling of dose, relative to dose proportionality",[1],1.74 times
same,"Cmax dose proportionality, in words",[1],more than dose proportional
same,Blood concentrations relative to steady state,[2],close to steady-state levels
same,subjects with 17-OHP within the guideline range after treatment,CRF1 receptor; guideline range (1200 ng/dL),50%
same,morning rise in A4,CRF1 receptor; patients with CAH,attenuates
